The source of these data is ChEMBL document CHEMBL3593232, “Ring-substituted 8-hydroxyquinoline-2-carboxanilides as potential antimycobacterial agents” (Bioorg Med Chem, 2015).

Each structure is given as a SMILES string. Values after ≈ are worked out from the molar mass of the structure shown.

A short description of series [1]: Lipophilicity assessed as capacity factor logK of the compound by HPLC method. Type of series: physicochemical.
The test system of the next series is THP-1. In words: Cytotoxicity against human THP1 cells assessed as reduction in cell viability incubated for 24 hrs by WST1 dye based assay. The settings on record: THP-1, 24 h. In general terms: Tetrazolium assays rely on reduction of a dye to a coloured formazan, in cell work by metabolically active cells.
The test system of series [2] is Mycobacterium avium complex sp. The series is classed as functional. Conditions: isolate CIT19/06, 120 h.
Series [3] relates to Mycobacterium tuberculosis. In words: microbe, parasite or virus in culture. The settings on record: H37Ra ATCC 25177, 168 h.
Description: Antimycobacterial activity against Mycobacterium tuberculosis H37Ra ATCC 25177 assessed as reduction in bacterial growth incubated at 37 degC for 7 days by alamar blue dye based assay
For series [4], the system named is Mycobacterium avium subsp. paratuberculosis. Type of series: functional. Conditions: isolate CIT03, 264 h.
In series [5] the test system is Mycobacterium tuberculosis. The series is classed as functional, H37Ra ATCC 25177.

In general, IC50 refers to the concentration needed to halve the response being measured.

On to `O=C(Nc1ccccc1)c1ccc2cccc(O)c2n1`, for which, in series [1], the “log K” value is reported as 0.76. In the series on THP-1, the IC50 was above 30 µM. Further, the MIC90 in series [2], in series [3] and in series [4] was 30 µM (≈ 7.93 µg/mL) each time.
Turning to `O=C(Nc1ccc(F)cc1)c1ccc2cccc(O)c2n1`, in series [1], the “log K” value was found to be 0.8598. Besides, in the series on THP-1, the IC50 was above 30 µM. Besides, the MIC90 in series [2], in series [3] and in series [4] was 53 µM (≈ 15 µg/mL) each time.
Regarding `COc1ccccc1NC(=O)c1ccc2cccc(O)c2n1`, the “log K” value in series [1] was found to be 0.7935. Further, in the series with THP-1, the IC50 was above 30 µM. In addition, the results for the MIC90 in series [2], in series [3] and in series [4] were 51 µM (≈ 15 µg/mL), 27 µM (≈ 7.95 µg/mL) and 51 µM (≈ 15 µg/mL), respectively.
In series [5], `COc1cccc(NC(=O)c2ccc3cccc(O)c3n2)c1` came in with an Activity of 30.9%. The “log K” value in series [1] was found to be 0.8164. For the same compound, in the series with THP-1, the IC50 is above 30 µM. Moreover, the MIC90 in series [2], in series [3] and in series [4] was 27 µM (≈ 7.95 µg/mL) in each case.
Consider `COc1ccc(NC(=O)c2ccc3cccc(O)c3n2)cc1`, for which the “log K” value in series [1] came out at 0.7129. In addition, the 50% inhibitory concentration (IC50) in the series on THP-1 is above 30 µM. In addition, the values for the MIC90 in series [2], in series [3] and in series [4] were 425 µM (≈ 125 µg/mL), 849 µM (≈ 250 µg/mL) and 849 µM (≈ 250 µg/mL), respectively.
In the case of `Cc1ccccc1NC(=O)c1ccc2cccc(O)c2n1`, in series [1], the “log K” value was determined as 0.6944. For the same compound, in the series with THP-1, the IC50 is above 30 µM. The MIC90 in series [2] came out at 54 µM (≈ 15 µg/mL); in series [3] it was 29 µM (≈ 8.07 µg/mL); in series [4] it was 29 µM (≈ 8.07 µg/mL).
In turn, `Cc1cccc(NC(=O)c2ccc3cccc(O)c3n2)c1` showed an Activity in series [5] of 66.4%. Also, in series [1], the “log K” value was determined as 0.9686. Further, the IC50 with THP-1 is above 30 µM. The MIC90 in series [2], in series [3] and in series [4] was 29 µM (≈ 8.07 µg/mL) throughout.
Consider `Cc1ccc(NC(=O)c2ccc3cccc(O)c3n2)cc1`, for which the “log K” value in series [1] is reported as 0.9521. For the same compound, the IC50 in the series with THP-1 was above 30 µM. Further, the MIC90 in series [2] is 54 µM (≈ 15 µg/mL); in series [3] it was 29 µM (≈ 8.07 µg/mL); in series [4] it was 29 µM (≈ 8.07 µg/mL).
With `O=C(Nc1ccccc1F)c1ccc2cccc(O)c2n1`, in series [5], the Activity is on record as 26.9%. For the same compound, in series [1], the “log K” value stood at 0.6806. Further, the IC50 with THP-1 was above 30 µM. Also, the MIC90 turned out to be 53 µM (≈ 15 µg/mL) in series [2], 28 µM (≈ 7.9 µg/mL) in series [3] and 28 µM (≈ 7.9 µg/mL) in series [4].
As for `O=C(Nc1cccc(F)c1)c1ccc2cccc(O)c2n1`, in series [1], the “log K” value stood at 0.942. Further, the IC50 with THP-1 is above 30 µM. The MIC90 in series [2], in series [3] and in series [4] was 53 µM (≈ 15 µg/mL) in each case.
`O=C(Nc1ccccc1Cl)c1ccc2cccc(O)c2n1`: in series [5], the Activity is reported as 21.4%. Besides, the “log K” value in series [1] came to 0.9566. Further, in the series with THP-1, the IC50 was above 30 µM. The MIC90 came to 837 µM (≈ 250 µg/mL) in series [2], 27 µM (≈ 8.07 µg/mL) in series [3] and 27 µM (≈ 8.07 µg/mL) in series [4].
Consider `O=C(Nc1cccc(Cl)c1)c1ccc2cccc(O)c2n1`, for which, in series [1], the “log K” value is on record as 1.1718. The IC50 in the series with THP-1 was above 30 µM. Also, the MIC90 in series [2], in series [3] and in series [4] was 50 µM (≈ 14.9 µg/mL) throughout.
In the case of `O=C(Nc1ccc(Cl)cc1)c1ccc2cccc(O)c2n1`, the “log K” value in series [1] stood at 1.1543. In addition, the IC50 in the series on THP-1 was above 30 µM. Further, the values for the MIC90 in series [2], in series [3] and in series [4] were 50 µM (≈ 14.9 µg/mL), 837 µM (≈ 250 µg/mL) and 837 µM (≈ 250 µg/mL), respectively.
For `O=C(Nc1ccccc1Br)c1ccc2cccc(O)c2n1`, in series [5], the Activity came to 26.9%. Also, the “log K” value in series [1] was 1.0536. Besides, the IC50 in the series on THP-1 is above 30 µM. The MIC90 in series [2] worked out at 729 µM (≈ 250 µg/mL); in series [3], 23 µM (≈ 7.89 µg/mL); in series [4], 23 µM (≈ 7.89 µg/mL).
For the compound `O=C(Nc1cccc(Br)c1)c1ccc2cccc(O)c2n1`, the “log K” value in series [1] was 1.2357. For the same compound, the IC50 in the series with THP-1 is above 30 µM. For the same compound, the MIC90 in series [2], in series [3] and in series [4] was 44 µM (≈ 15.1 µg/mL) in each case.
Turning to `O=C(Nc1ccc(Br)cc1)c1ccc2cccc(O)c2n1`, in series [1], the “log K” value was 1.2347. For the same compound, in the series with THP-1, the 50% inhibitory concentration (IC50) is above 30 µM. Further, the MIC90 was determined as 44 µM (≈ 15.1 µg/mL) in series [2], 729 µM (≈ 250 µg/mL) in series [3] and 729 µM (≈ 250 µg/mL) in series [4].
The compound `O=C(Nc1ccccc1C(F)(F)F)c1ccc2cccc(O)c2n1` yielded an Activity in series [5] of 53.4%. Moreover, the “log K” value in series [1] amounted to 0.9147. Besides, in the series on THP-1, the IC50 was above 30 µM. The MIC90 amounted to 752 µM (≈ 250 µg/mL) in series [2], 24 µM (≈ 7.97 µg/mL) in series [3] and 24 µM (≈ 7.97 µg/mL) in series [4].
Compound `O=C(Nc1cccc(C(F)(F)F)c1)c1ccc2cccc(O)c2n1` came in with an Activity in series [5] of 18.8%. Also, the “log K” value in series [1] is recorded as 1.3206. Further, in the series with THP-1, the IC50 is above 30 µM. Further, the MIC90 in series [2], in series [3] and in series [4] was 24 µM (≈ 7.97 µg/mL) each time.
As to `O=C(Nc1ccc(C(F)(F)F)cc1)c1ccc2cccc(O)c2n1`, the Activity in series [5] stood at 33.1%. The “log K” value in series [1] turned out to be 1.3653. In addition, the IC50 in the series with THP-1 is above 30 µM. The MIC90 in series [2], in series [3] and in series [4] was 24 µM (≈ 7.97 µg/mL) throughout.
For `O=C(Nc1ccccc1[N+](=O)[O-])c1ccc2cccc(O)c2n1`, the “log K” value in series [1] is 1.1277. Further, the IC50 in the series on THP-1 was above 30 µM. Moreover, the figures for the MIC90 in series [2], in series [3] and in series [4] were 808 µM (≈ 250 µg/mL), 97 µM (≈ 30 µg/mL) and 97 µM (≈ 30 µg/mL), respectively.
In series [5], `O=C(Nc1cccc([N+](=O)[O-])c1)c1ccc2cccc(O)c2n1` displayed an Activity of 7%. The “log K” value in series [1] amounted to 0.9845. Besides, in the series on THP-1, the IC50 was above 30 µM. The MIC90 in series [2] was found to be 808 µM (≈ 250 µg/mL); in series [3], 26 µM (≈ 8.04 µg/mL); in series [4] it was 808 µM (≈ 250 µg/mL).
Compound `O=C(Nc1ccc([N+](=O)[O-])cc1)c1ccc2cccc(O)c2n1` gave an Activity in series [5] of 17.3%. Moreover, the “log K” value in series [1] is 1.0495. Also, the IC50 with THP-1 is above 30 µM. In addition, the MIC90 in series [2] is 808 µM (≈ 250 µg/mL); in series [3], 26 µM (≈ 8.04 µg/mL); in series [4], 404 µM (≈ 125 µg/mL).
Take `CO[C@H]1/C=C/O[C@@]2(C)Oc3c(C)c(O)c4c(O)c(c(/C=N/N5CCN(C)CC5)c(O)c4c3C2=O)NC(=O)/C(C)=C\C=C\[C@H](C)[C@H](O)[C@@H](C)[C@@H](O)[C@@H](C)[C@H](OC(C)=O)[C@@H]1C` [RIFAMPIN]: the values for the MIC90 in series [2], in series [3] and in series [4] were 10 µM (≈ 8.23 µg/mL), 10 µM (≈ 8.23 µg/mL) and 109 µM (≈ 89.7 µg/mL), respectively.
